Results from patent US8153683B2, “Methods of treatment using a prodrug of an excitatory amino acid” (Eli Lilly and Company, priority 2002, dated 2012).

Experiment: In Vivo Exposure as Measured by Rat Plasma Concentration
Details: Fischer 344 male rats, sum of the concentrations at 0.5 and 1 hour or at 1 and 3 hour, LC/MS/MS
Experimental: To study the in vivo exposure of compounds of Formula II following oral dosing of compounds of Formula I in comparison to compounds of Formula II, studies measuring the plasma concentrations of the respective compound of Formula II in rats are performed. Mature Fischer 344 male rats (190-270 gram) are obtained from Harlan Sprague-Dawley, Cumberland, Ind., USA, and acclimated in the study housing for 3 days. […] Blood samples are collected through orbital sinus or cardiac puncture (last time point) at 0.5 and 1 hour or, alternatively, at 1 and 3 hours. Plasma samples are stored at −20° C. in the presence of phenylmethylsulfonyl fluoride, a protease inhibitor, prior to analysis. Plasma samples and internal standard compounds are pretreated by solid phase extraction (SAX support, methanol/water/dilute acetic acid).
As shown in Tables 1A and 1B below, the plasma concentrations (ng/ml) of the respective compound of Formula II for each test compound are determined by LC/MS/MS and are presented as a sum of the concentrations at the 0.5 and 1 hour or, alternatively, at the 1 and 3 hour sample time points.

SMILES | Rat Exposure (ng/ml of (1R,2S,4R,5R,6R)-2-(2′S-Aminopropionyl)amino-4-fluorobicyclo[3.1.0]hexane-2,6-dicarboxylic acid hydrochloride) (following 5 mg/kg p.o.) | Rat Exposure (ng/ml of (1R,4S,5S,6S)-4-(2′S-Aminopropionyl)amino-]-2,2-dioxo-2λ^6-thia-bicyclo[3.1.0.]hexane-4,6-dicarboxylic acid hydrochloride) (following 5 mg/kg p.o.) | Rat Exposure (ng/ml of (1R,2S,4R,5R,6R)-2-(2′S-Aminopropionyl)amino-4-fluorobicyclo[3.1.0]hexane-2,6-dicarboxylic acid hydrochloride) (following 10 mg/kg p.o.)
C[C@H](N)C(=O)N[C@@]1(C(=O)O)C[C@@H](F)[C@H]2[C@H](C(=O)O)[C@H]21.Cl [Example 14, (1R,2S,4R,5R,6R)-2-(2′S-Amino-propionyl)amino-4-fluorobicyclo[3.1.0]hexane-2,6-dicarboxylic acid hydrochloride] | 5271 ng/ml (following 5 mg/kg p.o.) | – | –
N[C@@]1(C(=O)O)CS(=O)(=O)[C@H]2[C@H](C(=O)O)[C@H]21 [Non-prodrug form of Example 1, (1R,4S,5S,6S)-4-Amino-2,2-dioxo-2λ^6-thia-bicyclo[3.1.0]hexane-4,6-dicarboxylic acid] | – | 1521 ng/ml (following 5 mg/kg p.o.) | –
N[C@@]1(C(=O)O)C[C@@H](F)[C@H]2[C@H](C(=O)O)[C@H]21 [Non-prodrug form of Example 14, 1R,2S,4R,5R,6R-2-amino-4-fluorobicyclo[3.1.0]hexane-2,6-dicarboxylic acid] | 1162 ng/ml (following 5 mg/kg p.o.) | – | 1342 ng/ml (following 10 mg/kg p.o.)
